Results as given in ChEMBL document CHEMBL6153028, “Understanding the synergistic sensitization of natural products and antibiotics: An effective strategy to combat MRSA” (2025).

Experiments:
Format in all cases: functional
Staphylococcus aureus [1] = assay: Synergistic antimicrobial activity against methicillin resistant Staphylococcus aureus assessed as fractional inhibitory concentration index incubated for 24 hrs in presence of Oxacillin by checkerboard assay
Staphylococcus aureus [2] = assay: Synergistic antibacterial activity against methicillin resistant Staphylococcus aureus assessed as fractional inhibitory concentration index in presence of ampicillin
Staphylococcus aureus [3] = assay: Synergistic antimicrobial activity against methicillin-resistant Staphylococcus aureus assessed as fractional inhibitory concentration index in presence of gentamicin incubated for 24 hrs by checkerboard assay
Staphylococcus aureus [4] = assay: Synergistic antibacterial activity against methicillin-resistant Staphylococcus aureus assessed as fractional inhibitory concentration index incubated for 24 hrs in presence of cefazolin by checkerboard assay
Staphylococcus aureus [5] = assay: Synergistic antibacterial activity against methicillin-resistant Staphylococcus aureus assessed as fractional inhibitory concentration index incubated for 24 hrs in presence of vancomycin by checkerboard assay
Staphylococcus aureus [6] = assay: Synergistic antibacterial activity against methicillin resistant Staphylococcus aureus assessed as fractional inhibitory concentration index in presence of ciprofloxacin
Staphylococcus aureus [7] = assay: Synergistic antibacterial activity against methicillin resistant Staphylococcus aureus assessed as fractional inhibitory concentration index in presence of norfloxacin; details: time 24 hrs
Staphylococcus aureus [8] = assay: Synergistic antimicrobial activity against methicillin resistant Staphylococcus aureus 43300 assessed as fractional inhibitory concentration index incubated for 24 hrs in presence of norfloxacin by checkerboard assay
Staphylococcus aureus [9] = assay: Synergistic antimicrobial activity against methicillin-resistant Staphylococcus aureus assessed as fractional inhibitory concentration index in presence of gentamicin by checkerboard assay
Staphylococcus aureus [10] = assay: Synergistic antibacterial activity against methicillin-resistant Staphylococcus aureus assessed as fractional inhibitory concentration index incubated for 24 hrs in presence of fusidic acid by checkerboard assay
Staphylococcus aureus [11] = assay: Synergistic antibacterial activity against methicillin resistant Staphylococcus aureus assessed as fractional inhibitory concentration index incubated for 24 hrs in presence of levofloxacin by broth microdilution checkboard assay
Staphylococcus aureus [12] = assay: Synergistic antibacterial activity against methicillin-resistant Staphylococcus aureus assessed as fractional inhibitory concentration index in presence of azithromycin
Staphylococcus aureus [13] = assay: Synergistic antibacterial activity against methicillin-resistant Staphylococcus aureus 4806 assessed as fractional inhibitory concentration index incubated for 24 hrs in presence of ampicillin by checkerboard assay
Staphylococcus aureus [14] = assay: Synergistic antibacterial activity against methicillin-resistant Staphylococcus aureus assessed as fractional inhibitory concentration index incubated for 24 hrs in presence of ampicillin by checkerboard assay
Staphylococcus aureus [15] = assay: Synergistic antibacterial activity against Staphylococcus aureus assessed as fractional inhibitory concentration index incubated for 24 hrs in presence of ampicillin by checkerboard assay
Staphylococcus aureus [16] = assay: Synergistic antibacterial activity against methicillin resistant Staphylococcus aureus assessed as fractional inhibitory concentration index in presence of oxacillin incubated for 24 hrs by checkerboard assay
Staphylococcus aureus [17] = assay: Synergistic antibacterial activity against methicillin resistant Staphylococcus aureus assessed as fractional inhibitory concentration index in presence of kanamycin incubated for 24 hrs by checkerboard assay
Staphylococcus aureus [18] = assay: Synergistic antimicrobial activity against methicillin resistant Staphylococcus aureus assessed as fractional inhibitory concentration index incubated for 24 hrs in presence of amikacin by checkerboard assay
Staphylococcus aureus [19] = assay: Synergistic antibacterial activity against methicillin-resistant Staphylococcus aureus assessed as fractional inhibitory concentration index in presence of cefoxitin
Staphylococcus aureus [20] = assay: Synergistic antimicrobial activity against methicillin-resistant Staphylococcus aureus assessed as fractional inhibitory concentration index incubated for 24 hrs in presence of ampicillin by checkerboard assay
Staphylococcus aureus [21] = assay: Synergistic antimicrobial activity against methicillin resistant Staphylococcus aureus assessed as fractional inhibitory concentration index incubated for 24 hrs in presence of oxytetracycline by checkerboard assay
Staphylococcus aureus [22] = assay: Synergistic antimicrobial activity against methicillin resistant Staphylococcus aureus assessed as fractional inhibitory concentration index incubated for 24 hrs in presence of sulbactam by checkerboard assay
Staphylococcus aureus [23] = assay: Synergistic antimicrobial activity against methicillin resistant Staphylococcus aureus 43300 assessed as fractional inhibitory concentration index incubated for 24 hrs in presence of Oxacillin by checkerboard assay
Staphylococcus aureus [24] = assay: Synergistic antimicrobial activity against methicillin-resistant Staphylococcus aureus assessed as fractional inhibitory concentration index in presence of vancomycin by checkerboard assay

C[C@H]1[C@H](C)CC[C@]2(C(=O)O)CC[C@]3(C)C(=CC[C@@H]4[C@@]5(C)CC[C@H](O)C(C)(C)[C@@H]5CC[C@]43C)[C@H]12 [URSOLIC ACID]
fractional inhibitory concentration index (FICI) (Staphylococcus aureus [1]): <0.5
fractional inhibitory concentration index (FICI) (Staphylococcus aureus [2]): <0.5

CC(C)c1cc2c(c(O)c1O)[C@@]1(C(=O)O)CCCC(C)(C)[C@@H]1CC2 [CARNOSIC ACID]
fractional inhibitory concentration index (FICI) (Staphylococcus aureus [3]): 0.5

COc1ccc2cc1Oc1ccc(cc1)C[C@H]1c3cc(c(OC)cc3CCN1C)Oc1c(OC)c(OC)cc3c1[C@H]2N(C)CC3
fractional inhibitory concentration index (FICI) (Staphylococcus aureus [4]): 0.188

Oc1cc(O)cc(/C=C/c2ccc(O)cc2O)c1 [OXYRESVERATROL]
fractional inhibitory concentration index (FICI) (Staphylococcus aureus [5]): 0.37
fractional inhibitory concentration index (FICI) (Staphylococcus aureus [6]): 0.37

O=c1c(-c2ccc(O)cc2)coc2cc(O)cc(O)c12 [GENISTEIN]
fractional inhibitory concentration index (FICI) (Staphylococcus aureus [7]): 0.38

CC1=CCC[C@@H]2[C@@](C)(C[C@H](O)C3=CC(=O)OC3O)[C@H](C)CC[C@@]12C (stereo not given in full)
fractional inhibitory concentration index (FICI) (Staphylococcus aureus [1]): 0.125

COc1cc2c(cc1O)CC[n+]1cc3c(OC)c(OC)ccc3cc1-2.[I-]
fractional inhibitory concentration index (FICI) (Staphylococcus aureus [8]): 0.375

C[C@@H]1O[C@@H](O[C@H]2[C@H](O[C@H]3CC[C@]4(C)[C@H]5CC=C6[C@@H]7CC(C)(C)CC[C@]7(C(=O)O)CC[C@@]6(C)[C@]5(C)CC[C@H]4C3(C)C)OC[C@H](O)[C@@H]2O)[C@H](O)[C@H](O)[C@H]1O
fractional inhibitory concentration index (FICI) (Staphylococcus aureus [1]): 0.28

O=C(O)c1cc(O)c2c(c1)C(=O)c1cccc(O)c1C2=O [RHEIN]
fractional inhibitory concentration index (FICI) (Staphylococcus aureus [1]): 0.37

COc1cc(C)c2c(c1C)OC(=O)c1c(C)c(Cl)c(O)c(C=O)c1O2
fractional inhibitory concentration index (FICI) (Staphylococcus aureus [1]): 0.312
fractional inhibitory concentration index (FICI) (Staphylococcus aureus [9]): 0.25

COc1ccc2cc1Oc1ccc(cc1)C[C@H]1c3cc(c(OC)cc3CCN1C)Oc1c(O)c(OC)cc3c1[C@H]2N(C)CC3
fractional inhibitory concentration index (FICI) (Staphylococcus aureus [4]): 0.25

COc1ccc2cc3[n+](cc2c1OC)CCc1cc2c(cc1-3)OCO2.[Cl-] [BERBERINE CHLORIDE]
fractional inhibitory concentration index (FICI) (Staphylococcus aureus [10]): 0.19
fractional inhibitory concentration index (FICI) (Staphylococcus aureus [11]): 0.375
fractional inhibitory concentration index (FICI) (Staphylococcus aureus [12]): 0.188

COc1c(O)ccc2c1C(CC(C)=O)N(C)c1c-2ccc2cc3c(cc12)OCO3 (stereo not given)
fractional inhibitory concentration index (FICI) (Staphylococcus aureus [13]): 0.375
fractional inhibitory concentration index (FICI) (Staphylococcus aureus [14]): 0.5
fractional inhibitory concentration index (FICI) (Staphylococcus aureus [15]): 0.5

CC(C)=CCc1c(-c2ccc(O)cc2O)oc2c3c(cc(O)c2c1=O)OC(C)(C)C=C3 [MORUSIN]
fractional inhibitory concentration index (FICI) (Staphylococcus aureus [16]): 0.375
fractional inhibitory concentration index (FICI) (Staphylococcus aureus [17]): 0.5

CC(C)=CC[C@@H](O)C1=CC(=O)c2c(O)ccc(O)c2C1=O [SHIKONIN]
fractional inhibitory concentration index (FICI) (Staphylococcus aureus [18]): 0.37
fractional inhibitory concentration index (FICI) (Staphylococcus aureus [19]): 0.57
fractional inhibitory concentration index (FICI) (Staphylococcus aureus [9]): 0.5

O=C(O[C@@H]1Cc2c(O)cc(O)cc2O[C@@H]1c1cc(O)c(O)c(O)c1)c1cc(O)c(O)c(O)c1 [EPIGALOCATECHIN GALLATE]
fractional inhibitory concentration index (FICI) (Staphylococcus aureus [20]): 0.19
fractional inhibitory concentration index (FICI) (Staphylococcus aureus [21]): 0.288
fractional inhibitory concentration index (FICI) (Staphylococcus aureus [22]): 0.19

COc1ccc2c(c[n+](C)c3c4cc5c(cc4ccc23)OCO5)c1OC.[Cl-] [CHELERYTHRINE CHLORIDE]
fractional inhibitory concentration index (FICI) (Staphylococcus aureus [23]): 0.5

C=C(C)[C@@H]1CC[C@]2(C=O)CC[C@]3(C)[C@H](CC[C@@H]4[C@@]5(C)CC[C@H](O)C(C)(C)[C@@H]5CC[C@]43C)[C@@H]12 [BETULINALDEHYDE]
fractional inhibitory concentration index (FICI) (Staphylococcus aureus [24]): 0.5
